Reference: patent US20240398805A1, “QUINAZOLINE DERIVED COMPOUNDS AS EGFR INHIBITORS AND THEIR USES THEREOF” (ACCUTAR BIOTECHNOLOGY INC., priority 2021, published 2024)

Experiments:
Format in all cases: cell-based
[1] = tested on: HCC827-ASV cells (human EGFR exon 20 insertion mutant A769_D770insASV); experiment: Cell growth inhibition (CellTiter-Glo, 3 days) in HCC827-ASV; conditions: 72 h, 3 days after administration
In short: (§1)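 Growth inhibition used a CellTiter-Glo luminescence read-out after 3 days of compound exposure at various concentrations. Cells were plated the day before at 5000/well in RPMI plus 10% FBS. The lines are HCC827 transduced by lentivirus with codon-optimized EGFR ASV or ERBB2 YVMA exon 20 insertions.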

[2] = tested on: HCC827 cells; experiment: Cell growth inhibition (CellTiter-Glo, 3 days) in HCC827; conditions: Homo sapiens, 72 h, 3 days after administration
In short: (§2)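 HCC827 cells in RPMI/10% FBS and A431 cells in DMEM/10% FBS were seeded at 5000 cells/well and left overnight. Compound was then added over a concentration range for 3 days of incubation, and viability was read by CellTiter-Glo luminescence.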

[3] = tested on: A431 cells; experiment: Cell growth inhibition (CellTiter-Glo, 3 days) in A431; conditions: Homo sapiens, A-431, 72 h, 3 days after administration
In short: as §2

[4] = tested on: HCC827-SVD cells (human EGFR exon 20 insertion mutant D770_N771 insSVD); experiment: Cell growth inhibition (CellTiter-Glo, 3 days) in HCC827-SVD; conditions: 72 h, 3 days after administration
In short: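 HCC827 cells carrying lentiviral codon-optimized EGFR D770_N771 insSVD, with endogenous EGFR knocked out by CRISPR (single clone), seeded at 5000 cells/well in RPMI with 10% FBS. Viability read by CellTiter-Glo luminescence.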

[5] = tested on: HCC827-YVMA cells (human ERBB2 exon20 insertion mutant A775_G776ins YVMA); experiment: Cell growth inhibition (CellTiter-Glo, 3 days) in HCC827-YVMA; conditions: 72 h, 3 days after administration
In short: as §1

GI50 [1] [nM] | GI50 [2] [nM] | GI50 [3] [nM] | GI50 [4] [nM] | GI50 [5] [nM] | Compound
30 to 60 | 100 to 300 | 300 to 600 | 30 to 60 | 30 to 60 | C=CC(=O)N1CCC(Nc2cc3c(Nc4ccc(Oc5ccnc(N6CC(OC(C)C)C6)c5)cc4F)ncnc3cc2OC)CC1 [Example 148, 1-(4-((4-((2-fluoro-4-((2-(3-isopropoxyazetidin-1-yl)pyridin-4-yl)oxy)phenyl)amino)-7-methoxyquinazolin-6-yl)amino)piperidin-1-yl)prop-2-en-1-one]
< 30 | 600 to 1000 | ≥ 1000 | 60 to 100 | 60 to 100 | C=CC(=O)N1CCC(Oc2cc3c(Nc4ccc(Oc5ccnc(N6C[C@@H](C)O[C@@H](C)C6)c5)cc4F)ncnc3cc2OC)CC1 [Example 152, 1-(4-((4-((4-((2-((2R,6S)-2,6-dimethylmorpholino)pyridin-4-yl)oxy)-2-fluorophenyl)amino)-7-methoxyquinazolin-6-yl)oxy)piperidin-1-yl)prop-2-en-1-one]
100 to 300 | ≥ 1000 | ≥ 1000 | 300 to 600 | 300 to 600 | C=CC(=O)N1CCC(Nc2cc3c(Nc4ccc(Oc5ccnc(N6C[C@@H](C)N[C@@H](C)C6)c5)cc4F)ncnc3cc2OC)CC1 [Example 154, 1-(4-((4-((4-((2-((3R,5S)-3,5-dimethylpiperazin-1-yl)pyridin-4-yl)oxy)-2-fluorophenyl)amino)-7-methoxyquinazolin-6-yl)amino)piperidin-1-yl)prop-2-en-1-one]

Second part, the molecule before the results:

Compound | GI50 [1] [nM] | GI50 [2] [nM] | GI50 [3] [nM] | GI50 [4] [nM] | GI50 [5] [nM]
C=CC(=O)N1CCC(Nc2cc3c(Nc4ccc(Oc5ccnc(N6CC(N(C)C)C6)c5)cc4F)ncnc3cc2OC)CC1 [Example 147, 1-(4-((4-((4-((2-(3-(dimethylamino)azetidin-1-yl)pyridin-4-yl)oxy)-2-fluorophenyl)amino)-7-methoxyquinazolin-6-yl)amino)piperidin-1-yl)prop-2-en-1-one] | 60 to 100 | 100 to 300 | ≥ 1000 | 60 to 100 | 60 to 100
C=CC(=O)N1CCC(Nc2cc3c(Nc4ccc(Oc5ccnc(N6CCC(C)(O)C6)c5)cc4F)ncnc3cc2OC)CC1 (stereo not shown) [Example 149, 1-(4-((4-((2-fluoro-4-((2-(3-hydroxy-3-methylpyrrolidin-1-yl)pyridin-4-yl)oxy)phenyl)amino)-7-methoxyquinazolin-6-yl)amino)piperidin-1-yl)prop-2-en-1-one] | 30 to 60 | 100 to 300 | 100 to 300 | 30 to 60 | 60 to 100
C=CC(=O)N1CCC(Nc2cc3c(Nc4ccc(Oc5ccnc(N6CCC(C)(C)C6)c5)cc4F)ncnc3cc2OC)CC1 [Example 153, 1-(4-((4-((4-((2-(3,3-dimethylpyrrolidin-1-yl)pyridin-4-yl)oxy)-2-fluorophenyl)amino)-7-methoxyquinazolin-6-yl)amino)piperidin-1-yl)prop-2-en-1-one] | < 30 | < 30 | 300 to 600 | < 30 | 30 to 60
C=CC(=O)N1CCC(Nc2cc3c(Nc4ccc(Oc5ccnc(N6CCC(CO)(CO)C6)c5)cc4F)ncnc3cc2OC)CC1 [Example 155, 1-(4-((4-((4-((2-(3,3-bis(hydroxymethyl)pyrrolidin-1-yl)pyridin-4-yl)oxy)-2-fluorophenyl)amino)-7-methoxyquinazolin-6-yl)amino)piperidin-1-yl)prop-2-en-1-one] | 100 to 300 | ≥ 1000 | ≥ 1000 | 100 to 300 | 100 to 300
C=CC(=O)N1CCC(Oc2cc3c(Nc4ccc(Oc5ccnc(N6C[C@@H](C)N(C)[C@@H](C)C6)c5)cc4F)ncnc3cc2OC)CC1 [Example 156, 1-(4-((4-((2-fluoro-4-((2-((3R,5S)-3,4,5-trimethylpiperazin-1-yl)pyridin-4-yl)oxy)phenyl)amino)-7-methoxyquinazolin-6-yl)oxy)piperidin-1-yl)prop-2-en-1-one] | 100 to 300 | ≥ 1000 | ≥ 1000 | 100 to 300 | 100 to 300
